Measured values reported in US6410554B1, “Combination therapy for the treatment of benign prostatic hyperplasia” (Merck & Co., Inc., priority 1998, dated 2002).
Structures can show the parent of a compound that is named as a salt.

melting point: 80 to 83 °C
Compound: C[C@@H]1OC(=O)N(C(=O)NCCCN2CCC(c3ccc(F)cc3)CC2)[C@H]1c1ccc(F)c(F)c1 (as salt: hydrochloride)
